Patent US12558352B2, “Use of malic enzyme 1 (ME1) in preparation of drug for preventing and treating pulmonary hypertension (PH)” (Institute of Basic Medical Sciences, CAMS, priority 2022, dated 2026)

How the values were obtained:
[1] = system: SuHx-induced PH mice; assay: Preventive treatment of SuHx-induced PH mice; format: in vivo, mouse; details: compared with vehicle
Protocol: 8 to 10 week-old SPF-grade C57BL/6J male mice weighing 25 g to 30 g were fed in a hypoxia chamber (an oxygen concentration in the chamber was maintained at 10%) while receiving weekly subcutaneous injections of 20 mg/kg of SU5416 for 0 weeks (n=8), 1 week (n=8), 2 weeks (n=8), and 3 weeks (n=8). The mouse lung tissues were collected and assessed for RVSP and RVHI and analyzed for PAMT.
The RVSP can be used to evaluate a pulmonary artery pressure (PAP) of the mouse, and the RVHI can reflect the right ventricular involvement and right ventricular hypertrophy of the mouse due to excessive PVR. The specific operation steps were as follows: (1) After anesthetized with 2% pentobarbital sodium (50 mg/kg by intraperitoneal injection), the mice were fixed on an operating board. (2) Power Lab was started and then connected to a pressure transducer. (3) The skin of the anterior chest wall of the mouse was cut with surgical scissors to clearly expose the position of manubrium sternum. (4) A 22-gauge needle was inserted into the right ventricle (RV) at 45° along an intersection point of the manubrium sternum and the left costal margin through the closed chest, and a position of the needle tip in the heart cavity was determined by the waveform; a stable RVSP waveform was saved and an RVSP measured value were recorded through Chart program. (5) The mice were sacrificed to obtain the heart; excess connective tissue and appendages in the heart were removed, and a free wall of the right ventricle was cut; the right ventricle, left ventricle, and interventricular septum (Left ventricular+septum, LV+S) were weighed to calculate RVHI=RV/LV+S.
PAMT is used to analyze the morphological changes of pulmonary vessels. In the present disclosure, a primary antibody of α-smooth muscle actin (α-SMA), a surface marker of pulmonary vascular smooth muscle cells, was stained by immunohistochemistry, and then a percentage of PAMT was calculated to evaluate the pulmonary vascular remodeling of PH mice. […] After deparaffinized and antigen retrieval (a pH of citric acid buffer was 6.0), the section was incubated with a primary antibody against α-SMA at 4° C. overnight, and then incubated with a horseradish peroxidase-bound secondary antibody. After counterstained with hematoxylin, cell nuclei were rinsed with tap water and differentiated with 0.5% […], soaked in tap water for 15 min, routinely dehydrated, subjected to transparent treatment, sealed with glycerogelatin and photographed. Statistical analysis: pulmonary vessel thickness was measured with a diameter of (0-50) μm and (50-100) μm. At least 20 vessels with a diameter of (0-50) μm and at least 15 vessels with a diameter of (50-100) μm were assessed per mouse, and the PAMT percentage was calculated as: (outer circumference/2π-inner circumference/2π)/(outer circumference/2π)×100.
Echocardiography was conducted using a Vevo 2100 ultrasound imaging platform to evaluate the dynamic changes of blood flow in the right heart of PH mice. (1) The mice were depilated to fully expose the skin on the chest wall. (2) The mice were placed on a constant-temperature heating plate at 37° C., anesthetized with 3.0% isoflurane through the nose and mouth, and the inhalation was continued with 1.5% isoflurane after the mice were anesthetized. (3) The mice were smeared with a small amount of coupling agent on their limbs and the limbs were fixed, and dynamic changes of the body temperature, heart rate, respiration rate, and electrocardiogram for mice were continuously recorded, while ensuring that the mice were in a resting state. (4) The ultrasound probe was placed, an appropriate amount of coupling agent was added, the pulmonary artery acceleration time (PAAT), pulmonary artery ejection time (PAET), and velocity-time integral were determined at a short-axis position, and then obtained frequency spectrum was saved and added with color ultrasound. […]

[2] = biological target: T1, ME1 (Mus musculus, UniProt P06801); assay: Dose-finding: inhibition of ME1 enzymatic activity in lung tissue of normoxia mice after single intraperitoneal injection; format: in vivo; details: dose greater than or equal to 100 mg/kg (doses tested 1, 10, 100, 200, 500 mg/kg)
T1 construct: from tissue; host or cells: mouse lung tissue (normoxia mice, lysate after intraperitoneal dosing)
T1 sequence (P06801 1-572): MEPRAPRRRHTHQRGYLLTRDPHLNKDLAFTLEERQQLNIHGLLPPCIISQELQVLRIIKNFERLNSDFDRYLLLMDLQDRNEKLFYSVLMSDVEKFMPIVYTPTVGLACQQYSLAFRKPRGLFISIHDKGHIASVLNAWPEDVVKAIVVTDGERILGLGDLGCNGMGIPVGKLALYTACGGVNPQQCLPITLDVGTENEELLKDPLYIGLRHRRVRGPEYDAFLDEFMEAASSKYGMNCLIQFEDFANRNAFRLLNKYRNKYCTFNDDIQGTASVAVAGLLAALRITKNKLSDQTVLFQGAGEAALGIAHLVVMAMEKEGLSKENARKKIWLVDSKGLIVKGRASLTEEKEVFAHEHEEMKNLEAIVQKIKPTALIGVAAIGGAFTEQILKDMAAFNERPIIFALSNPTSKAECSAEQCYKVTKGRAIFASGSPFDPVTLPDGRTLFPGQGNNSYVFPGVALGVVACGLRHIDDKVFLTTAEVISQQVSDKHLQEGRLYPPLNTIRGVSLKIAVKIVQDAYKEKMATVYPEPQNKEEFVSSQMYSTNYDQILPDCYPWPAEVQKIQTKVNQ
Protocol: Histone supernatants or mitochondrial extracts were used to detect ME1 enzymatic activity. (1) Liquid preparation: an ME1 reaction buffer (pH=7.4) was prepared from 67 mM triethanolamine and 5.0 mM manganese chloride. (2) Sample preparation: a protein lysate was centrifuged at 13,000 rpm for 15 min at 4° C. (3) Adding samples: a reaction system included ME1 reaction buffer+L-malic acid (3.3 mM)+β-NADP^+ (0.3 mM)+protein lysate, with a total volume of 150 μL. (4) Reading was done with a multi-functional microplate reader, at a reading temperature maintained at 37° C., and an absorbance value was monitored at a wavelength of 340 nm every 50 s for a total of 30 min. (5) The protein concentration was determined for standardization. (6) The change of absorbance per mg of protein per unit time was calculated. In the present disclosure, normoxia mice are intraperitoneally injected with ME1*, at single injection doses of 1, 10, 100, 200, and 500 mg/kg, respectively, to explore the inhibitory effect of ME1* on the enzymatic activity of ME1 in mouse lung tissues.

[3] = Safety evaluation of preventive treatment (body weight, HE staining of organs); format: in vivo, mouse; details: 100 mg/kg intraperitoneally once a day
Protocol: Male SPF-grade C57BL/6J mice aged 8 to 10 weeks with a body weight of 25 g to 30 g were randomly divided into the following 4 groups: • (1) Normoxia+vehicle control group: 6 mice were fed in a normoxia environment for 3 weeks; from the second week, the mice were intraperitoneally injected with vehicle (100 mg/kg) once a day, for a total of 14 injections. • (2) Normoxia+ME1* treatment group: 6 mice were fed in a normoxia environment for 3 weeks; from the second week, the mice were intraperitoneally injected with ME1* (100 mg/kg) once a day, for a total of 14 injections. • (3) SuHx modeling+vehicle control group: 10 mice were treated with SuHx for 3 weeks (SuHx modeling method was the same as above); from the second week, the mice were intraperitoneally injected with vehicle (100 mg/kg) once a day, for a total of 14 injections. • (4) SuHx modeling+ME1* treatment group: 10 mice were treated with SuHx for 3 weeks; from the second week, the mice were intraperitoneally injected with ME1* (100 mg/kg) once a day, for a total of 14 injections. […]

[4] = 100 mg/kg intraperitoneally once a day, 14 injections
[5] = echocardiography, 100 mg/kg intraperitoneally once a day

enzymatic activity of ME1 in mouse lung tissue [2]: significantly inhibited
SMILES: O=C1CC(N2CCN(c3ccc(O)cc3)CC2)C(=O)N1c1ccccc1 (stereo not drawn) [ME1*]
progression of PH ([1]; 100 mg/kg intraperitoneally once a day from second week, 14 injections): significantly slowed | RVHI (%) [1, 4]: significantly lower | RVSP [1, 4]: significantly lower | PA AT/ET [1, 5]: significantly higher | TAPSE [1, 5]: significantly higher | PAMT percentage ([1]; pulmonary artery diameters 0-50 μm and 50-100 μm, 100 mg/kg intraperitoneally once a day): significantly lower | tissue and organ damage (HE staining of lung, heart, liver, spleen, kidney, small intestine) ([3]; after the treatment, 14 injections): no obvious tissue and organ damage | body weight of the mice ([3]; weighed every week, compared with vehicle group): not significantly reduced
